# The supplement of paper PMC11061612
# Tests used:
# Assay in all cases: Bliss excess, mean over the matrix (fraction); higher = more synergy
# [1] = tested on: CCRF-CEM (T-Lymphoblastic Leukemia)
# Method in brief: (§1)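 After 24 hours at 37°C and 5% CO2 in 1536-well plates, cells in DMEM/F12 or RPMI plus 10% FBS received two-drug dose matrices for 72 hours. Viability came from CellTiter-Glo 2.0 luminescence and was scaled as inhibition, anchored at 0 by vehicle wells and at 1 by blank wells. Combination Emax is taken as the second-highest inhibition in the matrix, and Bliss excess as the observed combination effect less EA + EB − EA·EB, with EA and EB the single-agent effects.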
# [2] = tested on: EC-GI-10 (Esophageal Squamous Cell Carcinoma)
# Method in brief: as §1
# [3] = tested on: KYSE-520 (Esophageal Squamous Cell Carcinoma)
# Method in brief: as §1
# [4] = tested on: ME-1 (Acute Myeloid Leukemia)
# Method in brief: as §1
# [5] = tested on: LS-180 (Colorectal Carcinoma)
# Method in brief: as §1
# [6] = tested on: RC-K8 (B-Cell Non-Hodgkin's Lymphoma)
# Method in brief: as §1
# [7] = tested on: NCI-H82 (Small Cell Lung Carcinoma)
# Method in brief: as §1
# HOS (Osteosarcoma) = tested on: HOS (Osteosarcoma)
# Method in brief: as §1
# [8] = tested on: Daoy (Other Solid Carcinomas)
# Method in brief: as §1
# [9] = tested on: HCC-78 (Lung Adenocarcinoma)
# Method in brief: as §1
# [10] = tested on: DoTc2-4510 (Cervical Carcinoma)
# Method in brief: as §1
# [11] = tested on: OVCA420 (Ovarian Carcinoma)
# Method in brief: as §1
# [12] = tested on: CaR-1 (Colorectal Carcinoma)
# Method in brief: as §1
# ES4 (Ewing's Sarcoma) = tested on: ES4 (Ewing's Sarcoma)
# Method in brief: as §1
# T98G (Glioblastoma) = tested on: T98G (Glioblastoma)
# Method in brief: as §1
# KELLY (Neuroblastoma) = tested on: KELLY (Neuroblastoma)
# Method in brief: as §1
# [13] = tested on: MFE-296 (Endometrial Carcinoma)
# Method in brief: as §1
# [14] = tested on: Calu-3 (Lung Adenocarcinoma)
# Method in brief: as §1
# [15] = tested on: TE-9 (Esophageal Squamous Cell Carcinoma)
# Method in brief: as §1
# [16] = tested on: LB831-BLC (Bladder Carcinoma)
# Method in brief: as §1
Compound,Bliss excess [1],Bliss excess [2],Bliss excess [3],Bliss excess [4],Bliss excess [5],Bliss excess [6],Bliss excess [7],Bliss excess (HOS (Osteosarcoma)),Bliss excess [8],Bliss excess [9],Bliss excess [10],Bliss excess [11],Bliss excess [12],Bliss excess (ES4 (Ewing's Sarcoma)),Bliss excess (T98G (Glioblastoma)),Bliss excess (KELLY (Neuroblastoma)),Bliss excess [13],Bliss excess [14],Bliss excess [15],Bliss excess [16]
"CC1(C)CCC(CN2CCN(c3ccc(C(=O)NS(=O)(=O)c4ccc(NCC5CCOCC5)c([N+](=O)[O-])c4)c(Oc4cnc5[nH]ccc5c4)c3)CC2)=C(c2ccc(Cl)cc2)C1 [Venetoclax] + C1CN(CCC1(C(=O)N[C@@H](CCO)C2=CC=C(C=C2)Cl)N)C3=NC=NC4=C3C=CN4 [Capivasertib] (first compound max 1 µM, 7x7, partner max 3 µM)",0.0042,-0.0488,-0.0575,0,-0.0173,-0.0173,-0.0458,-0.0243,0.0117,-0.0331,-0.0185,-0.0357,-0.0045,-0.0231,-0.0382,0.0017,-0.0063,-0.0116,-0.0114,-0.0272
"CC1(C)CCC(CN2CCN(c3ccc(C(=O)NS(=O)(=O)c4ccc(NCC5CCOCC5)c([N+](=O)[O-])c4)c(Oc4cnc5[nH]ccc5c4)c3)CC2)=C(c2ccc(Cl)cc2)C1 [Venetoclax] + C=CCn1c(=O)c2cnc(Nc3ccc(N4CCN(C)CC4)cc3)nc2n1-c1cccc(C(C)(C)O)n1 [AZD1775] (first compound max 1 µM, partner max 1 µM)",0.0922,0.0086,-0.0907,0.0289,-0.0559,-0.0082,0.0342,-0.0335,-0.0683,0.0098,0.0075,-0.0079,-0.0159,-0.0268,0.0648,0.0593,-0.0391,-0.0074,0.0674,-0.0004
"CC1(C)CCC(CN2CCN(c3ccc(C(=O)NS(=O)(=O)c4ccc(NCC5CCOCC5)c([N+](=O)[O-])c4)c(Oc4cnc5[nH]ccc5c4)c3)CC2)=C(c2ccc(Cl)cc2)C1 [Venetoclax] + CCN(CCO)CCCOc1ccc2c(Nc3cc(CC(=O)Nc4cccc(F)c4)[nH]n3)ncnc2c1 [AZD2811] (first compound max 1 µM, 7x7, partner max 1 µM)",-0.0322,-0.0058,-0.0294,-0.0118,-0.0106,0.0214,0.0452,-0.0102,-0.0311,-0.0149,-0.0189,-0.0114,-0.055,-0.029,-0.0169,0.0038,-0.013,-0.0057,-0.0184,-0.0073
"CC1(C)CCC(CN2CCN(c3ccc(C(=O)NS(=O)(=O)c4ccc(NCC5CCOCC5)c([N+](=O)[O-])c4)c(Oc4cnc5[nH]ccc5c4)c3)CC2)=C(c2ccc(Cl)cc2)C1 [Venetoclax] + CN(C)CCCOc1ccc(-c2ccc3ncc4c(c3c2)n(C2CCOCC2)c(=O)n4C)cn1 [AZD0156] (first compound max 1 µM, 7x7, partner max 1 µM)",0.0436,0.0119,-0.0218,-0.0045,-0.0099,0.0282,0.0295,-0.033,-0.0076,0.0213,-0.0148,-0.02,-0.0201,-0.0226,-0.0509,0.0158,0.0003,-0.0113,-0.0213,-0.061
"CC1(C)CCC(CN2CCN(c3ccc(C(=O)NS(=O)(=O)c4ccc(NCC5CCOCC5)c([N+](=O)[O-])c4)c(Oc4cnc5[nH]ccc5c4)c3)CC2)=C(c2ccc(Cl)cc2)C1 [Venetoclax] + COc1cc(Nc2ncc3c(n2)-c2ccc(Cl)cc2C(c2c(F)cccc2OC)=NC3)ccc1C(=O)O [Alisertib] (first compound max 1 µM, 7x7, partner max 10 µM)",-0.0493,0.0164,-0.0489,0.0669,-0.008,0.024,0.0328,-0.0132,0.105,0.0127,-0.0367,-0.025,0.008,-0.0349,-0.0205,0.0343,-0.0285,-0.0228,0.0148,-0.0354
"CC1(C)CCC(CN2CCN(c3ccc(C(=O)NS(=O)(=O)c4ccc(NCC5CCOCC5)c([N+](=O)[O-])c4)c(Oc4cnc5[nH]ccc5c4)c3)CC2)=C(c2ccc(Cl)cc2)C1 [Venetoclax] + C[C@@H]1COCCN1C2=NC(=NC(=C2)C3(CC3)[S@](=N)(=O)C)C4=C5C=CNC5=NC=C4 [AZD6738] (first compound max 1 µM, 7x7, partner max 10 µM)",0.0224,0.0294,-0.0353,0.0345,-0.0174,-0.0294,0.0098,-0.0099,-0.028,-0.0195,-0.0174,0.0047,-0.0005,-0.0465,-0.061,0.0209,-0.0296,-0.0023,-0.0019,0.0045
"CC1(C)CCC(CN2CCN(c3ccc(C(=O)NS(=O)(=O)c4ccc(NCC5CCOCC5)c([N+](=O)[O-])c4)c(Oc4cnc5[nH]ccc5c4)c3)CC2)=C(c2ccc(Cl)cc2)C1 [Venetoclax] + C[C@@H](Nc1cc(F)cc(F)c1)c1cc(C(=O)N(C)C)cc2c(=O)cc(N3CCOCC3)oc12 [AZD8186] (first compound max 1 µM, 7x7, partner max 3 µM)",0.012,-0.0139,-0.06,0.0239,-0.0286,0.018,-0.0452,-0.0262,-0.0073,-0.0337,-0.0078,-0.0285,-0.0366,-0.0554,-0.0064,0.0068,-0.0248,-0.0189,-0.0185,-0.0465
"CC1(C)CCC(CN2CCN(c3ccc(C(=O)NS(=O)(=O)c4ccc(NCC5CCOCC5)c([N+](=O)[O-])c4)c(Oc4cnc5[nH]ccc5c4)c3)CC2)=C(c2ccc(Cl)cc2)C1 [Venetoclax] + Cc1cc2ncnn2cc1Nc1ncc2c(n1)n(C1CCOCC1)c(=O)n2C [AZD7648] (first compound max 1 µM, 7x7, partner max 10 µM)",0.044,0.038,-0.0284,0.0319,-0.0061,0.0156,-0.0227,-0.0019,-0.0129,-0.017,-0.0413,-0.0089,-0.048,-0.0452,-0.0693,-0.0064,-0.0065,0.0113,-0.0175,-0.0497
"CC1(C)CCC(CN2CCN(c3ccc(C(=O)NS(=O)(=O)c4ccc(NCC5CCOCC5)c([N+](=O)[O-])c4)c(Oc4cnc5[nH]ccc5c4)c3)CC2)=C(c2ccc(Cl)cc2)C1 [Venetoclax] + Cn1cnc2c(F)c(Nc3ccc(Br)cc3Cl)c(C(=O)NOCCO)cc21 [Selumetinib] (first compound max 1 µM, 7x7, partner max 3 µM)",0.0079,-0.0293,-0.0836,0.055,0.0538,-0.0112,-0.0125,-0.0282,-0.0185,-0.0329,-0.0414,-0.045,-0.0511,-0.0412,-0.0186,0.009,-0.0297,-0.0214,-0.027,-0.0239
